Entries after “also recorded” stand apart in the source; their conditions may differ.
What was measured:
[1] = test system: tight skin (Tsk-1) mice; assay: Tight skin (Tsk-1) mice model of skin fibrosis; format: in vivo, mouse; settings: 30 mg/kg/day
Description: Two models of skin fibrosis were used to evaluate the effect of Compound I in comparison with imatinib mesylate, used as a reference.

[2] = test system: renal failure; assay: Models of hypertension-induced or nephrotoxicity-induced renal failure; settings: in vivo
Description: (§1) All these pathological events can be observed in SSc patients at different levels and further support the use of Compound I in these patients.

[3] = test system: cardiac hypertrophy, fibrosis and heart failure; assay: Models of hypertension or diabetes-related cardiac hypertrophy, fibrosis and heart failure; settings: in vivo
Description: as §1

[4] = test system: leukocytes and total inflammatory cells in broncho-alveolar lavage; assay: Broncho-alveolar lavage of presensitized mice treated with ovalbumin; format: in vivo
[5] = Multiple-dose (BID) PK at steady state with meals in healthy adult subjects; format: in vivo, human; settings: for t1/2 / half-life: median; for Ctrough / AUC / Cmax: steady state, mean (% CV); for AUC / Cmax / half-life: human, plasma, oral
Method: The PK of Compound I and food effect were evaluated in an open-label study in healthy volunteers to inform the dose and dosing condition of the tablet formulations used in the clinical studies. Dose proportionality and food effect were evaluated using a 2-way, 2-period crossover design in two cohorts:150 mg and 300 mg single dose under fasting condition in Cohort 1 and 450 mg single dose under fasting and high-fat, high calorie meal condition in Cohort 2. Multiple-dose PK was evaluated using a 2-period, fixed sequence crossover design. Subjects received Compound I twice a day (BID) of 300 mg (Cohort 3) or 450 mg (Cohort 4) administered with low-fat meals in Period 1 and with high-fat meals in Period 2.
PK sample collections: For cohort 1 and 2, blood samples were collected at predose, 0.5, 1, 2, 3, 4, 6, 8, 12, 24, 36, 48, 72, 96 and 120 h post dose. For cohort 3 and 4, blood samples were collected at predose, 0.5, 1, 2, 4, 5, 12 hrs after the first dose on Day 1. After the last dose on Day 5, PK samples were taken at predose, 0.5, 1, 2, 4, 6, 12, 24, 36, 60, 84, 108 hr in Period 1 and predose, 0.5, 1, 2, 4, 6, 12 hours post last dose in Period 2.
Plasma concentrations of Compound I were determined using a validated high performance liquid chromatography-tandem mass spectrometry (HPLC MS/MS) method. The analytical range of Compound I were 250-50,000 ng/mL (high range) and […] (low range). Dose-proportionality of pharmacokinetic parameters were examined by analysis of variance (ANOVA) where the AUC0-last, AUC0-inf, and Cmax parameters were dose normalized. 90% confidence intervals (CIs) were derived by exponentiation of the CIs obtained for the difference between the treatment LSMs (Least square means). Dose proportionality was established if the 90% CI for the ratio of the geometric means for the dose-normalized parameters lay within the limits of (0.7, 1.43).

[6] = target: T1, organic anion transporter 1 (OAT1) (Homo sapiens, UniProt Q4U2R8); assay: In vitro inhibition of organic anion transporter 1; format: in vitro ADME
T1 sequence (Q4U2R8 1-563): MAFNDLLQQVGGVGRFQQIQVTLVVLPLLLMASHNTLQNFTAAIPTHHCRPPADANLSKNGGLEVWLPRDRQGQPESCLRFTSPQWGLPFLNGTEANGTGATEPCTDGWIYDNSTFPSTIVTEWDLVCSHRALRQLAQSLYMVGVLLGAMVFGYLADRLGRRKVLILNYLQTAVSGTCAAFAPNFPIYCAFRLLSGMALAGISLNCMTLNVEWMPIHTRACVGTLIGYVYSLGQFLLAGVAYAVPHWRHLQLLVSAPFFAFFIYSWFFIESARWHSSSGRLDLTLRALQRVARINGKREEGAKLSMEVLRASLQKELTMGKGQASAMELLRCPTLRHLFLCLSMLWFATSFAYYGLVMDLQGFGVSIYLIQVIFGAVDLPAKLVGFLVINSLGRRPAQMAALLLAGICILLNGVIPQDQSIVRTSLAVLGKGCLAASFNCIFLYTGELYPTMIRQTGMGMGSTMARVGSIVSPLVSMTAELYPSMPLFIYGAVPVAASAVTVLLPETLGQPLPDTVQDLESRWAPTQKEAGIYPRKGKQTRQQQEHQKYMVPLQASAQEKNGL

[7] = target: T2, organic anion transporter 3 (OAT3) (Homo sapiens, UniProt Q8TCC7); assay: In vitro inhibition of organic anion transporter 3; format: in vitro ADME
T2 sequence (Q8TCC7 1-542): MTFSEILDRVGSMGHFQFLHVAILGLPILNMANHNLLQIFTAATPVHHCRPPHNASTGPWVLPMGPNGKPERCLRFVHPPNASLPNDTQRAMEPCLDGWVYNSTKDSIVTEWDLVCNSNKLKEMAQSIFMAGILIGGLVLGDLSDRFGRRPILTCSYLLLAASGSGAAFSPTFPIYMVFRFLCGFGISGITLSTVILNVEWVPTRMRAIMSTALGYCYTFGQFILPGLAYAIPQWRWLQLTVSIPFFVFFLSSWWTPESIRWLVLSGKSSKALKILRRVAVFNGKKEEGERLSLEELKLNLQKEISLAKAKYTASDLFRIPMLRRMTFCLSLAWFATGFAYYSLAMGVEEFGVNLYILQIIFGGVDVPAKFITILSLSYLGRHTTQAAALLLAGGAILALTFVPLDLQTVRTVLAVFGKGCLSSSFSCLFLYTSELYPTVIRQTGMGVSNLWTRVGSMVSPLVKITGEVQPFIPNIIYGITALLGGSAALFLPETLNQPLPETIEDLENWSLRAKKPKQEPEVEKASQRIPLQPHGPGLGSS

[8] = target: lysophosphatidic acid receptor 1 (LPAR1) (Homo sapiens, UniProt Q92633); assay: LPAR1 antagonism
Chain of lysophosphatidic acid receptor 1 (LPAR1) (Q92633 whole entry): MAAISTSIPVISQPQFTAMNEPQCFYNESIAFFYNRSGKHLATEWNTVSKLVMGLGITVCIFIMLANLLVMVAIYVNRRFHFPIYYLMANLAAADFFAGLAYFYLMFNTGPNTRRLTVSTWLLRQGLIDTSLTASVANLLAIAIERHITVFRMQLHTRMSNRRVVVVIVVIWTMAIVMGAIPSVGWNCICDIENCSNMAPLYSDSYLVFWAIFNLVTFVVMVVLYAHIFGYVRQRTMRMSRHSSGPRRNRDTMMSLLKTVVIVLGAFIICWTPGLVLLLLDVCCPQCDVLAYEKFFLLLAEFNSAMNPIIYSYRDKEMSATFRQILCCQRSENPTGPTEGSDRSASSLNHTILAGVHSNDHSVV

[9] = test system: patients with early dcSSc; settings: Allanore et al. 2018, cited from earlier work
[10] = 300 mg BID, High-fat reduced calorie meal
[11] = 450 mg BID, High-fat high calorie meal
[12] = 300 mg, 300 mg BID, High-fat reduced calorie meal
[13] = 300 mg, 300 mg BID, Low-fat meal
[14] = 450 mg, 450 mg BID, High-fat high calorie meal
[15] = 450 mg, 450 mg BID, Low-fat meal

SMILES: COc1ccc(C(=O)NC2(C(=O)O)Cc3ccccc3C2)cc1OCCc1cccc(C)c1 [Compound I, 2-(4-methoxy-3-(3-methylphenethoxy)benzamido)-2,3-dihydro-1H-indene-2-carboxylic acid]
- progression of skin fibrosis [1]: inhibit the progression of skin fibrosis at a similar level than imatinib
- kidney function [2]: improved kidney function
- arterial stiffness [3]: positive effect
- blood pressure [3]: mostly unchanged
- cardiac function and structure [3]: beneficial effect
- cardiac systolic and diastolic function [3]: improves
- inflammation in model of lung injury ([4]; predominant Th2-type response): reduces inflammation
- accumulation of leukocytes and total inflammatory cells in broncho-alveolar lavage ([4]; presensitized mice treated with ovalbumin): significant inhibitory effect
- t1/2 [5, 10]: 24.6 h
- Ctrough [5, 10]: 8627 (17%) ng/mL
- Ctrough ([5]; 300 mg BID, Low-fat meal): 6570 (13%) ng/mL
- t1/2 [5, 11]: 27.7 h
- Ctrough [5, 11]: 11000 (23%) ng/mL
- Ctrough ([5]; 450 mg BID, Low-fat meal): 11000 (35%) ng/mL
- AUC [5, 12]: 166 µg·h/mL
- Cmax [5, 12]: 21700 ng/mL
- AUC [5, 13]: 129 µg·h/mL
- Cmax [5, 13]: 15900 ng/mL
- AUC [5, 14]: 204 µg·h/mL
- Cmax [5, 14]: 25800 ng/mL
- AUC [5, 15]: 163 µg·h/mL
- Cmax [5, 15]: 18400 ng/mL
- half-life ([5]; 300 mg BID, Low-fat meal): 24.6 h
- half-life ([5]; 450 mg BID, Low-fat meal): 27.7 h
- inhibition of OAT1 [6]: inhibitor
- inhibition of OAT3 [7]: inhibitor
- LPAR1 antagonist activity [8]: potent and selective antagonist
- most frequent treatment-emergent adverse events (TEAEs) ([9]; 8-week double-blind period): headache, diarrhea, nausea and fall
- tolerability ([9]; about 300 mg BID up to 24 weeks): well tolerated
- clinical outcome measures (mRSS, HAQ-DI, SHAQ components, disease severity VAS, pruritus VAS) ([9]; about 300 mg BID): improved outcome measures; also recorded: numerical improvement
- target engagement [9]: demonstrated target engagement
